{"source": "ChEMBL document CHEMBL5257053", "about": "“Discovery of Orally Bioavailable FGFR2/FGFR3 Dual Inhibitors via Structure-Guided Scaffold Repurposing Approach” (ACS Med Chem Lett, 2023)", "key": {"[1]": {"assay": "Half life in Sprague-Dawley rat at 3 mg/kg, po or 1 mg/kg, iv measured up to 24 hrs", "format": "ADME, organism-based", "conditions": "in vivo"}, "[2]": {"molecular_target": "T1, Fibroblast growth factor receptor 2 (Homo sapiens, UniProt P21802)", "T1 sequence (P21802 whole entry)": "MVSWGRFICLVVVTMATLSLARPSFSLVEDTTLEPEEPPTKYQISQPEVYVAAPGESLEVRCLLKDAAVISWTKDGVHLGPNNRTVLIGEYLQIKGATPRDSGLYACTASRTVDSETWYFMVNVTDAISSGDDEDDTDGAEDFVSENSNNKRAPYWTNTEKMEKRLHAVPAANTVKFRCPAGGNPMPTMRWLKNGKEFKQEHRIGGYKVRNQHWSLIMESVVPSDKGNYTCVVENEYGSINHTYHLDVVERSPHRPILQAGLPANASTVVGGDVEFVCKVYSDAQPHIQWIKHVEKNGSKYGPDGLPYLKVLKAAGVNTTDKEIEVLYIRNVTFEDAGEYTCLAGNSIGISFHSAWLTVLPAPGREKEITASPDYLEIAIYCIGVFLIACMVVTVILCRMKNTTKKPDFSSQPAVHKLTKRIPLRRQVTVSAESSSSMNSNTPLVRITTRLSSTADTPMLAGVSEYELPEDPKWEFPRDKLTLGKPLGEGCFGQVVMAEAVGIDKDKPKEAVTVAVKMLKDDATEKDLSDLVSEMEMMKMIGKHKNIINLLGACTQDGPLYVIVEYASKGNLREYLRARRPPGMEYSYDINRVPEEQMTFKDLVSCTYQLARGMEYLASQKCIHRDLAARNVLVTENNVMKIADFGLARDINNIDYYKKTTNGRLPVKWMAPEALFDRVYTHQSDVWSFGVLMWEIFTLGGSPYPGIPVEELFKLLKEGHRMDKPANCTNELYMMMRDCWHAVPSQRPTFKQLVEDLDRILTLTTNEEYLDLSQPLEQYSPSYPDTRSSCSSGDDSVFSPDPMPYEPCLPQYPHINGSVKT", "assay": "Inhibition of FGFR2 in human KATOIII cells incubated for 1 hr", "format": "cell-based, KATO III stomach cancer cell line"}, "[3]": {"molecular_target": "hERG (KCNH2) (Homo sapiens, UniProt Q12809)", "sequence (Q12809 whole entry)": "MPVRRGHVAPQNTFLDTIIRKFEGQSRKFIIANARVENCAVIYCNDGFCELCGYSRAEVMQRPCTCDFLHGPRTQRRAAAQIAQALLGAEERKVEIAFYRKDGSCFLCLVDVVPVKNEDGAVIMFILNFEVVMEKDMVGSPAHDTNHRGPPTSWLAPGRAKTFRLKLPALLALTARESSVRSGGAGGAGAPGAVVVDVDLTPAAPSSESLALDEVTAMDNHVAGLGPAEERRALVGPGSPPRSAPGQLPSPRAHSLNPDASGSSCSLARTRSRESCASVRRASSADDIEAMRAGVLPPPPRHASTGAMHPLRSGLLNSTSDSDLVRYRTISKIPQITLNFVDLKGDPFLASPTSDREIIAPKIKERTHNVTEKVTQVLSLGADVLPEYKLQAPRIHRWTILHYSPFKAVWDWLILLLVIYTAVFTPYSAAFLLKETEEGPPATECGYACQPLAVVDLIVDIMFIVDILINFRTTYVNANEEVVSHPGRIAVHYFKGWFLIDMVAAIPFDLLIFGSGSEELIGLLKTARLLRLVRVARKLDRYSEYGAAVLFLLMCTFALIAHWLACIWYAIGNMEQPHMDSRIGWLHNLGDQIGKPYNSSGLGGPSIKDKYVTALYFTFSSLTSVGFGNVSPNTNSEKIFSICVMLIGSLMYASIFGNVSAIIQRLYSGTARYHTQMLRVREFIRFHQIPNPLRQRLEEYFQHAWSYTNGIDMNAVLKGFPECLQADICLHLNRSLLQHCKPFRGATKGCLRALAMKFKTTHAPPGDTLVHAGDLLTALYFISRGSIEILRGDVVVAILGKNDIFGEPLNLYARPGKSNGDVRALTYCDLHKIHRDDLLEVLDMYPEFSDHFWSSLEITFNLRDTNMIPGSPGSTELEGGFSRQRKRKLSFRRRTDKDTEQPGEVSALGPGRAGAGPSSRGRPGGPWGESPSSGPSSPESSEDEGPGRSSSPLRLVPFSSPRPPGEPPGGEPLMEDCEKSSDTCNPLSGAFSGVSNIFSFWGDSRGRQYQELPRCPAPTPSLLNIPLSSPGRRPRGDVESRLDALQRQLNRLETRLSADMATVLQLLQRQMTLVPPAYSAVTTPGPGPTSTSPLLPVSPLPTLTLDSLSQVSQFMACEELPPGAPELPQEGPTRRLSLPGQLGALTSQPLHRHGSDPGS", "assay": "Inhibition of human ERG at 10 uM relative to control", "format": "toxicity"}, "[4]": {"molecular_target": "T2, Cytochrome P450 2B6 (Homo sapiens, UniProt P20813)", "T2 sequence (P20813 whole entry)": "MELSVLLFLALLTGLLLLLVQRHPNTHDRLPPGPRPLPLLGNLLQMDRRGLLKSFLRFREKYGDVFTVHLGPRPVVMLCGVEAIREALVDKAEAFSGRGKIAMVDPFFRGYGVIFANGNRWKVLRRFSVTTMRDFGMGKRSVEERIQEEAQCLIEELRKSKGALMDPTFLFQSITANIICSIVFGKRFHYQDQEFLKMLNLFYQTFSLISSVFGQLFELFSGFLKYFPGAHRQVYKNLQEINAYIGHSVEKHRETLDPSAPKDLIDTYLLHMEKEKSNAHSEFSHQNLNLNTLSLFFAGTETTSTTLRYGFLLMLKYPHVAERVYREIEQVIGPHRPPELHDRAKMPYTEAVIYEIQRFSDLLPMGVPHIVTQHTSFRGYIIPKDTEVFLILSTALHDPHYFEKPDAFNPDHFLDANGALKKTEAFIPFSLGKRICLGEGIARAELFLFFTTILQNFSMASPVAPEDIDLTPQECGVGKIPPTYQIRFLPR", "assay": "Inhibition of CYP2B6 (unknown origin)", "format": "ADME"}, "[5]": {"molecular_target": "Cytochrome P450 3A4 (Homo sapiens, UniProt P08684)", "sequence (P08684 whole entry)": "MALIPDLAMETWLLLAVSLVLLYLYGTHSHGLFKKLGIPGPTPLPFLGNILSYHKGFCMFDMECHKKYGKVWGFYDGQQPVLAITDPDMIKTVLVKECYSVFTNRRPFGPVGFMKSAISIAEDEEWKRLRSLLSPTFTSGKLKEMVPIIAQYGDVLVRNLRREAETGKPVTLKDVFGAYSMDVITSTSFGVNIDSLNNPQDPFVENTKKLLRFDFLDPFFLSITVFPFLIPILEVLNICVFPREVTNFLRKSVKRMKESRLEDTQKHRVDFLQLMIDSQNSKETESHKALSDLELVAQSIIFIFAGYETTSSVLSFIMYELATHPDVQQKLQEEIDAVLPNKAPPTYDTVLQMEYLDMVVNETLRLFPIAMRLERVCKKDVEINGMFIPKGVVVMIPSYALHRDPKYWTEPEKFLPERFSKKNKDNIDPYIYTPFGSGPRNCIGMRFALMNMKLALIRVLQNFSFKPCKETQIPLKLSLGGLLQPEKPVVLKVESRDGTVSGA", "assay": "Inhibition of CYP3A4 (unknown origin)", "format": "ADME"}, "[6]": {"assay": "Clearance in Sprague-Dawley rat at 3 mg/kg, po or 1 mg/kg, iv measured up to 24 hrs", "format": "ADME, organism-based", "conditions": "in vivo"}, "[7]": {"molecular_target": "T1, Fibroblast growth factor receptor 2", "assay": "Inhibition of recombinant human FGFR2 (400 to 821 residues) using biotin-EQEDEPEGDYFEWLE-amide as substrate preincubated for 5 to 10 mins followed by substrate addition and measured after 1 hr in presence of ATP by HTRF assay"}, "[8]": {"molecular_target": "Cytochrome P450 2D6 (Homo sapiens, UniProt P10635)", "sequence (P10635 whole entry)": "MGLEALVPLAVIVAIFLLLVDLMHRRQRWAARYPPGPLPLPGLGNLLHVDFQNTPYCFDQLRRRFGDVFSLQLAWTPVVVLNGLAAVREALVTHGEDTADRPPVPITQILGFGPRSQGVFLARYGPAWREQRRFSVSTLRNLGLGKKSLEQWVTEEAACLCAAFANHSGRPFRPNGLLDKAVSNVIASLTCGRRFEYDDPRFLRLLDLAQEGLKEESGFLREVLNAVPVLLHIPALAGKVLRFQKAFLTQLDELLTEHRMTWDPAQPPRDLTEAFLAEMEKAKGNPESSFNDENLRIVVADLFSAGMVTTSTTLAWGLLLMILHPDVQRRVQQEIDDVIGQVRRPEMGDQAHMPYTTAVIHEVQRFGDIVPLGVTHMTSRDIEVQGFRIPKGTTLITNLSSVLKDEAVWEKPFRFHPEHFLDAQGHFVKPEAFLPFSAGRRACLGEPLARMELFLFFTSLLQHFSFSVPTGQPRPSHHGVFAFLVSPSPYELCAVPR", "assay": "Inhibition of CYP2D6 (unknown origin)", "format": "ADME"}, "[9]": {"molecular_target": "T3, Cytochrome P450 1A2 (Homo sapiens, UniProt P05177)", "T3 sequence (P05177 whole entry)": "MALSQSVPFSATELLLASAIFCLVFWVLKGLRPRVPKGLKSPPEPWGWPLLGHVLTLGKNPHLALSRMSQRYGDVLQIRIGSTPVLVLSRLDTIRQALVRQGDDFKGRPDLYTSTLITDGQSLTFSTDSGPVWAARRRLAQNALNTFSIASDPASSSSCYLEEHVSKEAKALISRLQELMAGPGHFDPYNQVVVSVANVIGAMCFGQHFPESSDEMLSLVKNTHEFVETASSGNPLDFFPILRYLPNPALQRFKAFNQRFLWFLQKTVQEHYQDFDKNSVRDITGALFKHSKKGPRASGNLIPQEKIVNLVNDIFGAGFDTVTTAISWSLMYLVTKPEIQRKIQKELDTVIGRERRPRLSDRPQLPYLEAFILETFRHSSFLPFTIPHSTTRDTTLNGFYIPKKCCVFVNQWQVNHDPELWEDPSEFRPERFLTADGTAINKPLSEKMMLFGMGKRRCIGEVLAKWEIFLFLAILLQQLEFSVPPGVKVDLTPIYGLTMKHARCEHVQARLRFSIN", "assay": "Inhibition of CYP1A2 (unknown origin)", "format": "ADME"}, "[10]": {"assay": "Clearance in cynomolgus monkey at 3 mg/kg, po or 1 mg/kg, iv measured up to 24 hrs", "format": "ADME, organism-based, Macaca fascicularis", "conditions": "in vivo"}, "[11]": {"assay": "Solubility of compound in fasted state stimulated intestinal fluid", "format": "ADME", "conditions": "fasted state simulated intestinal fluid"}, "[12]": {"assay": "Permeability in human Caco-2 cells incubated for 120 mins by LC-MS/MS analysis", "format": "ADME, cell-based", "conditions": "read-out: permeability"}, "[13]": {"assay": "AUCinfinity in cynomolgus monkey at 3 mg/kg, po measured up to 24 hrs", "format": "ADME, organism-based, Macaca fascicularis", "parameters": "time < 24 hrs, dose 3 mg/kg, route po", "conditions": "in vivo"}, "[14]": {"assay": "Solubility of compound in stimulated gastric fluid", "format": "ADME", "conditions": "simulated gastric fluid"}, "[15]": {"assay": "Metabolic stability in human liver microsomes assessed as intrinsic clearance at 1 uM preincubated for 2 mins followed by NADPH addition and measured upto 30 mins by LC-MS/MS analysis", "format": "ADME, Microsome", "conditions": "time < 32 min, read-out: CLH (converted)"}, "[16]": {"assay": "Half life in cynomolgus monkey at 3 mg/kg, po or 1 mg/kg, iv measured up to 24 hrs", "format": "ADME, organism-based, Macaca fascicularis", "conditions": "in vivo"}, "[17]": {"molecular_target": "T4, Activin receptor type-1 (Homo sapiens, UniProt Q04771)", "T4 sequence (Q04771 whole entry)": "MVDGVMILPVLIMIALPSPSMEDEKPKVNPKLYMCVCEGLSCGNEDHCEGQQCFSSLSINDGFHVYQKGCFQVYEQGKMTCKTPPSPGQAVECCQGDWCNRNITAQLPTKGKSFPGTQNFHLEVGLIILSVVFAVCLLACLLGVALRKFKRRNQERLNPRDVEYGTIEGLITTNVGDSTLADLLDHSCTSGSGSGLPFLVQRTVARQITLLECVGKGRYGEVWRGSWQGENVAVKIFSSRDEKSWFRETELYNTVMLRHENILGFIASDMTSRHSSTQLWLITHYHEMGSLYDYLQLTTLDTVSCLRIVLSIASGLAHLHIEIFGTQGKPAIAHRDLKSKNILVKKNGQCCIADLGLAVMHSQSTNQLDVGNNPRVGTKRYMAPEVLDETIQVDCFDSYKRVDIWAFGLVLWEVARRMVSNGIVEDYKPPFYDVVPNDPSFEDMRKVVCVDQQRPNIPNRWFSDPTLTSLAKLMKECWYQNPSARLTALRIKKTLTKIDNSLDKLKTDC", "assay": "Inhibition of recombinant human ALK2 (147 to end residues) expressed in Sf9 infected baculovirus expression system using TRF0130 as substrate incubated for 3 hrs in presence of […]"}, "[18]": {"assay": "Oral bioavailability in Sprague-Dawley rat at 3 mg/kg measured up to 24 hrs", "format": "ADME, organism-based", "conditions": "in vivo"}, "[19]": {"molecular_target": "Vascular endothelial growth factor receptor 2 (Homo sapiens, UniProt P35968)", "sequence (P35968 whole entry)": "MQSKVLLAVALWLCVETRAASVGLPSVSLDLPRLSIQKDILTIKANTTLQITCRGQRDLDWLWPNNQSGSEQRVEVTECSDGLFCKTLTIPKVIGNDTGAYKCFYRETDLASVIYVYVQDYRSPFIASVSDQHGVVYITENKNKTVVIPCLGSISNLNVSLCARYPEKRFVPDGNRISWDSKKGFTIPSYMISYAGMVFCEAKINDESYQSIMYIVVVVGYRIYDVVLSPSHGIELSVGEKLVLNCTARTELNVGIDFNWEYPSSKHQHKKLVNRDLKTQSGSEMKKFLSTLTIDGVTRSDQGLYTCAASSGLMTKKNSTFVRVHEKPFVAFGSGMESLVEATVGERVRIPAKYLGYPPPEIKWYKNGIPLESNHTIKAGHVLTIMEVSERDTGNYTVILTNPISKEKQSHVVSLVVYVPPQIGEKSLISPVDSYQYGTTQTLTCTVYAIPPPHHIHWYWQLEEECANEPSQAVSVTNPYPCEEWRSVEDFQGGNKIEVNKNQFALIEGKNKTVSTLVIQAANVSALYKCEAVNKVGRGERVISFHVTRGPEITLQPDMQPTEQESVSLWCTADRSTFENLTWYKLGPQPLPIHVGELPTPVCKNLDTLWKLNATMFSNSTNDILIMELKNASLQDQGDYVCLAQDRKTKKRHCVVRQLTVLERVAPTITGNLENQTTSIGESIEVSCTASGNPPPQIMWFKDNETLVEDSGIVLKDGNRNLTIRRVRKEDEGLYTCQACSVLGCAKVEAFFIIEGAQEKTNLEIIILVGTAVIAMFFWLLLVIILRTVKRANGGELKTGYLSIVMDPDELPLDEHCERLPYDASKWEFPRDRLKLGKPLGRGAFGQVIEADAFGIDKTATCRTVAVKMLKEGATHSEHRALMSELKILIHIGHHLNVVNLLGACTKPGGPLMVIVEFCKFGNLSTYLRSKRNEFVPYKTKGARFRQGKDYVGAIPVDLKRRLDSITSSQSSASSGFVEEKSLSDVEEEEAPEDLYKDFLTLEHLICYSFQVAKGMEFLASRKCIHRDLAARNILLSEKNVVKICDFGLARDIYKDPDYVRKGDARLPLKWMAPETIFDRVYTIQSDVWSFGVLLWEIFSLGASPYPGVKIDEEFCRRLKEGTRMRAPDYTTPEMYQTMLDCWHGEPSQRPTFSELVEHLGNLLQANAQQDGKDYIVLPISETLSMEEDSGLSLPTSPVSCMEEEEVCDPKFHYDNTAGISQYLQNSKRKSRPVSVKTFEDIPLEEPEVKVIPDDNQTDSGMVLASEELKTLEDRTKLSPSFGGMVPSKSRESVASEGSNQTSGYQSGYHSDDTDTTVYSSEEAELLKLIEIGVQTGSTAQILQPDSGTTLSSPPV", "assay": "Inhibition of KDR (unknown origin) using peptide substrate incubated for 90 mins in presence of ATP by HTRF method"}, "[20]": {"assay": "Protein binding in human plasma assessed as free fraction after 2 hrs by equilibrium dialysis method", "format": "ADME, cell-free"}, "[21]": {"assay": "Volume of distribution at steady state in Sprague-Dawley rat at 3 mg/kg, po or 1 mg/kg, iv measured up to 24 hrs", "format": "ADME, organism-based", "conditions": "in vivo"}, "[22]": {"assay": "Cmax in Sprague-Dawley rat at 3 mg/kg, po measured up to 24 hrs", "format": "ADME, organism-based", "parameters": "dose 3 mg/kg, time < 24 hrs, route po", "conditions": "in vivo"}, "[23]": {"assay": "Oral bioavailability in cynomolgus monkey at 3 mg/kg measured up to 24 hrs", "format": "ADME, organism-based, Macaca fascicularis", "conditions": "in vivo"}, "[24]": {"assay": "Drug concentration in NSG mouse plasma at 30 mg/kg, po measured after 2 hrs", "format": "ADME, organism-based"}, "[25]": {"molecular_target": "Fibroblast growth factor receptor 4 (Homo sapiens, UniProt P22455)", "assay": "Inhibition of recombinant human FGFR4 (460 to 802 residues) using biotin-EQEDEPEGDYFEWLE-amide as substrate preincubated for 5 to 10 mins followed by substrate addition and measured after 1 hr in presence of ATP by HTRF assay"}, "[26]": {"assay": "Cmax in cynomolgus monkey at 3 mg/kg, po measured up to 24 hrs", "format": "ADME, organism-based, Macaca fascicularis", "parameters": "time < 24 hrs, dose 3 mg/kg, route po", "conditions": "in vivo"}, "[27]": {"molecular_target": "Cytochrome P450 2C9 (Homo sapiens, UniProt P11712)", "sequence (P11712 whole entry)": "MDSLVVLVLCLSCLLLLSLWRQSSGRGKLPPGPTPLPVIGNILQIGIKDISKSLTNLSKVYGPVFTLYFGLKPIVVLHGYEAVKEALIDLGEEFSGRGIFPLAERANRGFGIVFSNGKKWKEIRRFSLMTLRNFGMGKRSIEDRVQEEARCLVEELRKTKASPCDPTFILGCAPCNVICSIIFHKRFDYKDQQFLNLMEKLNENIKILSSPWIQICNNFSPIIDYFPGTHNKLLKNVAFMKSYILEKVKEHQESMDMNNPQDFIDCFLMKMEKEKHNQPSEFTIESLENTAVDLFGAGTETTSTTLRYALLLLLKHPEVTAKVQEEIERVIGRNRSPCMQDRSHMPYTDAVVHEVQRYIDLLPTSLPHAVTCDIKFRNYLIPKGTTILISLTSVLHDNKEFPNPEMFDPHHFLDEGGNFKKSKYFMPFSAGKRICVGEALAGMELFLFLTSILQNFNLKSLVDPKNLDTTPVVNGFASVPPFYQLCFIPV", "assay": "Inhibition of CYP2C9 (unknown origin)", "format": "ADME"}, "[28]": {"assay": "Volume of distribution at steady state in cynomolgus monkey at 3 mg/kg, po or 1 mg/kg, iv measured up to 24 hrs", "format": "ADME, organism-based, Macaca fascicularis", "conditions": "in vivo"}, "[29]": {"molecular_target": "Fibroblast growth factor receptor 3 (Mus musculus, UniProt Q61851)", "assay": "Inhibition of FGFR3 phosphorylation in mouse BaF3 cells incubated for 2 hrs", "format": "cell-based"}, "[30]": {"assay": "AUCinfinity in Sprague-Dawley rat at 3 mg/kg, po measured up to 24 hrs", "format": "ADME, organism-based", "parameters": "dose 3 mg/kg, time < 24 hrs, route po", "conditions": "in vivo"}}, "data": [{"compound": "CN1C[C@@H]2CC[C@H](C1=O)N2c1ncc2[nH]nc(-c3cnn(C4CCC4)c3)c2n1", "values": [{"measurement": "half-life", "setting": "[1]", "result": 6.6, "unit": "h"}, {"measurement": "IC50", "setting": "[2]", "result": 24, "unit": "nM"}, {"measurement": "inhibition at 10 µM", "setting": "[3]", "result": "< 10", "unit": "%"}, {"measurement": "IC50", "setting": "[4]", "result": "> 10000", "unit": "nM"}, {"measurement": "IC50", "setting": "[5]", "result": "> 10000", "unit": "nM"}, {"measurement": "CL", "setting": "[6]", "result": 23.3, "unit": "mL/min/kg"}, {"measurement": "IC50", "setting": "[7]", "result": 1.8, "unit": "nM"}, {"measurement": "IC50", "setting": "[8]", "result": "> 10000", "unit": "nM"}, {"measurement": "IC50", "setting": "[9]", "result": "> 10000", "unit": "nM"}, {"measurement": "CL", "setting": "[10]", "result": 12, "unit": "mL/min/kg"}, {"measurement": "solubility", "setting": "[11]", "result": 557, "unit": "µg/mL"}, {"measurement": "Papp at 2 h", "setting": "[12]", "result": 4, "unit": "×10⁻⁶ cm/s"}, {"measurement": "AUC(0-inf)", "setting": "[13]", "result": 2.21, "unit": "µM·h"}, {"measurement": "solubility", "setting": "[14]", "result": "> 400", "unit": "µg/mL"}, {"measurement": "CLint scaled at 1 µM", "setting": "[15]", "result": 16.7, "unit": "mL/min/kg"}, {"measurement": "half-life", "setting": "[16]", "result": 3.2, "unit": "h"}, {"measurement": "IC50", "setting": "[17]", "result": 477, "unit": "nM"}, {"measurement": "bioavailability", "setting": "[18]", "result": 100, "unit": "%"}, {"measurement": "IC50", "setting": "[19]", "result": 184, "unit": "nM"}, {"measurement": "fraction unbound at 2 h", "setting": "[20]", "result": 0.11}, {"measurement": "Vdss", "setting": "[21]", "result": 2.6, "unit": "L/kg"}, {"measurement": "Cmax", "setting": "[22]", "result": 5550, "unit": "nM"}, {"measurement": "bioavailability", "setting": "[23]", "result": 20, "unit": "%"}, {"measurement": "concentration at 2 h", "setting": "[24]", "result": 760, "unit": "nM"}, {"measurement": "IC50", "setting": "[25]", "result": 157, "unit": "nM"}, {"measurement": "Cmax", "setting": "[26]", "result": 825, "unit": "nM"}, {"measurement": "IC50", "setting": "[27]", "result": "> 10000", "unit": "nM"}, {"measurement": "Vdss", "setting": "[28]", "result": 0.66, "unit": "L/kg"}, {"measurement": "IC50", "setting": "[29]", "result": 16, "unit": "nM"}, {"measurement": "AUC(0-inf)", "setting": "[30]", "result": 5.82, "unit": "µM·h"}]}]}
